Data as given in ChEMBL document CHEMBL1275550, “In vitro activity of doripenem, a carbapenem for the treatment of challenging infections caused by gram-negative bacteria, against recent clinical isolates from the United States” (2008).
Values after ≈ are worked out from the molar mass of the structure shown.

How the values were obtained:
Assay type in all cases: functional
Escherichia coli [1] = assay: Antimicrobial activity against ESBL producing Escherichia coli assessed as resistant isolate by broth microdilution method
Enterobacter cloacae [2] = assay: Antimicrobial activity against Enterobacter cloacae with nonderepressed AmpC beta-lactamsae assessed as resistant isolate by broth microdilution method
Klebsiella pneumoniae [3] = assay: Antimicrobial activity against ESBL producing Klebsiella pneumoniae assessed as resistant isolate by broth microdilution method
Klebsiella pneumoniae [4] = assay: Antimicrobial activity against Non-ESBL Klebsiella pneumoniae assessed as resistant isolate by broth microdilution method
Streptococcus pneumoniae [5] = assay: Antimicrobial activity against penicillin-intermediate Streptococcus pneumoniae by broth microdilution method
Staphylococcus aureus = assay: Antimicrobial activity against methicillin-resistant Staphylococcus aureus by broth microdilution method
Proteus mirabilis [6] = assay: Antimicrobial activity against Proteus mirabilis assessed as intermediate isolate by broth microdilution method
Pseudomonas aeruginosa [7] = assay: Antimicrobial activity against Pseudomonas aeruginosa assessed as resistant isolate by broth microdilution method
Citrobacter [8] = assay: Antimicrobial activity against Citrobacter assessed as intermediate isolate by broth microdilution method
Streptococcus pneumoniae [9] = assay: Antimicrobial activity against penicillin-resistant Streptococcus pneumoniae assessed as resistant isolate by broth microdilution method
Enterobacter cloacae [10] = assay: Antimicrobial activity against Enterobacter cloacae assessed as intermediate isolate by broth microdilution method
Streptococcus pneumoniae [11] = assay: Antimicrobial activity against […] assessed as susceptible isolate by broth microdilution method
Serratia marcescens [12] = assay: Antimicrobial activity against Serratia marcescens assessed as intermediate isolate by broth microdilution method
Staphylococcus = assay: Antimicrobial activity against methicillin-susceptible coagulase-negative Staphylococcus assessed as susceptible isolate by broth microdilution method
Klebsiella pneumoniae [13] = assay: Antimicrobial activity against Klebsiella pneumoniae assessed as intermediate isolate by broth microdilution method
Enterobacteriaceae [14] = assay: Antimicrobial activity against Enterobacteriaceae assessed as resistant isolate by broth microdilution method
Enterobacteriaceae [15] = assay: Antimicrobial activity against Enterobacteriaceae assessed as intermediate isolate by broth microdilution method
Proteus mirabilis [16] = assay: Antimicrobial activity against Proteus mirabilis assessed as resistant isolate by broth microdilution method
Acinetobacter [17] = assay: Antimicrobial activity against Acinetobacter assessed as intermediate isolate by broth microdilution method
Serratia marcescens [18] = assay: Antimicrobial activity against ceftazidime susceptible Serratia marcescens assessed as susceptible isolate by broth microdilution method in presence of Tazobactam
Enterobacter cloacae [19] = assay: Antimicrobial activity against Enterobacter cloacae with nonderepressed AmpC beta-lactamsae assessed as susceptible isolate by broth microdilution method in presence of Tazobactam
Enterobacteriaceae [20] = assay: Antimicrobial activity against ceftazidime-susceptible Enterobacteriaceae assessed as resistant isolate by broth microdilution method in presence of Tazobactam
Acinetobacter [21] = assay: Antimicrobial activity against imipenem non-susceptible Acinetobacter assessed as intermediate isolate by broth microdilution method in presence of Tazobactam
Enterobacteriaceae [22] = assay: Antimicrobial activity against ceftazidime non-susceptible Enterobacteriaceae assessed as susceptible isolate by broth microdilution method in presence of Tazobactam
Serratia marcescens [23] = assay: Antimicrobial activity against Ceftazidime susceptible Serratia marcescens assessed as resistant isolate by broth microdilution method in presence of tazobactam
Escherichia coli [24] = assay: Antimicrobial activity against ESBL producing Escherichia coli by broth microdilution method in presence of Tazobactam
Enterobacteriaceae [25] = assay: Antimicrobial activity against ceftazidime-susceptible Enterobacteriaceae assessed as susceptible isolate by broth microdilution method in presence of Tazobactam
Pseudomonas aeruginosa [26] = assay: Antimicrobial activity against Pseudomonas aeruginosa isolated from ICU patient assessed as resistant isolate by broth microdilution method
Pseudomonas aeruginosa [27] = assay: Antimicrobial activity against ceftazidime susceptible Pseudomonas aeruginosa assessed as susceptible isolate by broth microdilution method in presence of Tazobactam
Klebsiella pneumoniae [28] = assay: Antimicrobial activity against ESBL producing Klebsiella pneumoniae by broth microdilution method in presence of Tazobactam
Klebsiella pneumoniae [29] = assay: Antimicrobial activity against Non-ESBL Klebsiella pneumoniae assessed as intermediate isolate by broth microdilution method in presence of Tazobactam
Enterobacter cloacae [30] = assay: Antimicrobial activity against Enterobacter cloacae with nonderepressed AmpC beta-lactamsae by broth microdilution method in presence of Tazobactam
Pseudomonas aeruginosa [31] = assay: Antimicrobial activity against imipenem non-susceptible Pseudomonas aeruginosa assessed as resistant isolate by broth microdilution method in presence of Tazobactam
Pseudomonas aeruginosa [32] = assay: Antimicrobial activity against ceftazidime susceptible Pseudomonas aeruginosa assessed as resistant isolate by broth microdilution method in presence of Tazobactam
Acinetobacter [33] = assay: Antimicrobial activity against imipenem susceptible Acinetobacter assessed as resistant isolate by broth microdilution method in presence of Tazobactam
Citrobacter [34] = assay: Antimicrobial activity against Citrobacter with derepressed AmpC beta-lactamsae by broth microdilution method in presence of Tazobactam
Citrobacter [35] = assay: Antimicrobial activity against Citrobacter with nonderepressed AmpC beta-lactamsae assessed as susceptible isolate by broth microdilution method in presence of Tazobactam
Proteus mirabilis [36] = assay: Antimicrobial activity against Non-ESBL Proteus mirabilis assessed as intermediate isolate by broth microdilution method in presence of Tazobactam
Pseudomonas aeruginosa [37] = assay: Antimicrobial activity against Pseudomonas aeruginosa isolated from non-ICU patient assessed as resistant isolate by broth microdilution method in presence of Tazobactam
Pseudomonas aeruginosa [38] = assay: Antimicrobial activity against Ceftazidime non-susceptible Pseudomonas aeruginosa assessed as resistant isolate by broth microdilution method in presence of tazobactam
Klebsiella pneumoniae [39] = assay: Antimicrobial activity against Non-ESBL Klebsiella pneumoniae assessed as susceptible isolate by broth microdilution method in presence of Tazobactam
Acinetobacter [40] = assay: Antimicrobial activity against imipenem non-susceptible Acinetobacter by broth microdilution method in presence of Tazobactam
Proteus mirabilis [41] = assay: Antimicrobial activity against Non-ESBL Proteus mirabilis assessed as susceptible isolate by broth microdilution method in presence of Tazobactam
Acinetobacter [42] = assay: Antimicrobial activity against imipenem non-susceptible Acinetobacter assessed as susceptible isolate by broth microdilution method in presence of Tazobactam
Pseudomonas aeruginosa [43] = assay: Antimicrobial activity against Pseudomonas aeruginosa isolated from non-ICU patient assessed as susceptible isolate by broth microdilution method in presence of Tazobactam
Acinetobacter [44] = assay: Antimicrobial activity against imipenem susceptible Acinetobacter by broth microdilution method in presence of Tazobactam
Citrobacter [45] = assay: Antimicrobial activity against Citrobacter with derepressed AmpC beta-lactamsae assessed as intermediate isolate by broth microdilution method in presence of Tazobactam
Enterobacteriaceae [46] = assay: Antimicrobial activity against Ceftazidime non-susceptible Enterobacteriaceae assessed as resistant isolate by broth microdilution method in presence of tazobactam
Enterobacteriaceae [47] = assay: Antimicrobial activity against ceftazidime-susceptible Enterobacteriaceae by broth microdilution method in presence of Tazobactam
Pseudomonas aeruginosa [48] = assay: Antimicrobial activity against Pseudomonas aeruginosa isolated from ICU patient assessed as resistant isolate by broth microdilution method in presence of Tazobactam

Which Activity (Escherichia coli [1]) does the source give for `CC(C)(O/N=C(\C(=O)N[C@@H]1C(=O)N2C(C(=O)[O-])=C(C[n+]3ccccc3)CS[C@H]12)c1csc(N)n1)C(=O)O` [CEFTAZIDIME] here?
Its Activity is 56.7%.

And the Activity (Enterobacter cloacae [2])?
The Activity was 5.7%.

What about the Activity (Klebsiella pneumoniae [3]) of the same compound?
The Activity was 95.5%.

What about the Activity (Klebsiella pneumoniae [4]) of the same compound?
The Activity was 0.6%.

Which MIC50 (Streptococcus pneumoniae [5]) does the source give for `C[C@@H](O)[C@H]1C(=O)N2C(C(=O)O)=C(S[C@@H]3CN[C@H](CNS(N)(=O)=O)C3)[C@H](C)[C@H]12` [DORIPENEM] here?
Its MIC50 is 0.03 µg/mL (≈ 0.0713 µM).

What about the MIC90 (Streptococcus pneumoniae [5]) of the same compound?
The MIC90 was 0.5 µg/mL (≈ 1.19 µM).

And the MIC50 (Staphylococcus aureus)?
Its MIC50 is 0.5 µg/mL (≈ 1.19 µM).

What about the MIC90 (Staphylococcus aureus) of the same compound?
Its MIC90 is 8 µg/mL (≈ 19 µM).

For `C[C@@H](O)[C@H]1C(=O)N2C(C(=O)O)=C(SCCNC=N)C[C@H]12` [IMIPENEM ANHYDROUS], which Activity (Proteus mirabilis [6]) is on record?
Its Activity is 2.5%.

And the Activity (Pseudomonas aeruginosa [7])?
The Activity was 16%.

And the Activity (Citrobacter [8])?
Its Activity is 0%.

And the Activity (Streptococcus pneumoniae [9])?
Its Activity is 2.1%.

What about the Activity (Enterobacter cloacae [10]) of the same compound?
The Activity was 0.4%.

What about the MIC50 (Streptococcus pneumoniae [5]) of the same compound?
Its MIC50 is 0.03 µg/mL (≈ 0.1 µM).

And the MIC90 (Streptococcus pneumoniae [5])?
Its MIC90 is 0.25 µg/mL (≈ 0.835 µM).

And the Activity (Streptococcus pneumoniae [11])?
Its Activity is 99.9%.

And the Activity (Serratia marcescens [12])?
The Activity was 0.3%.

And the MIC50 (Staphylococcus aureus)?
The MIC50 was 0.25 µg/mL (≈ 0.835 µM).

What about the MIC90 (Staphylococcus aureus) of the same compound?
Its MIC90 is 8 µg/mL (≈ 26.7 µM).

And the Activity (Staphylococcus)?
Its Activity is 99.4%.

What about the Activity (Klebsiella pneumoniae [13]) of the same compound?
The Activity was 0.2%.

And the Activity (Enterobacteriaceae [14])?
The Activity was 0.1%.

What about the Activity (Enterobacteriaceae [15]) of the same compound?
Its Activity is 0.4%.

And the Activity (Proteus mirabilis [16])?
Its Activity is 0.2%.

What about the Activity (Acinetobacter [17]) of the same compound?
Its Activity is 0.7%.

Which results are given for `C[C@@H](O)[C@H]1C(=O)N2C(C(=O)O)=C(S[C@@H]3CN[C@H](C(=O)N(C)C)C3)[C@H](C)[C@H]12` [MEROPENEM]?
Activity (Proteus mirabilis [6]): 0%; Activity (Pseudomonas aeruginosa [7]): 10.2%; Activity (Citrobacter [8]): 0%; Activity (Streptococcus pneumoniae [9]): 2.3%; Activity (Enterobacter cloacae [10]): 0.4%; Activity (Streptococcus pneumoniae [11]): 100%; Activity (Serratia marcescens [12]): 0%; Activity (Staphylococcus): 99.4%; Activity (Klebsiella pneumoniae [13]): 0%; Activity (Enterobacteriaceae [14]): 0.1%; Activity (Enterobacteriaceae [15]): 0%; Activity (Klebsiella pneumoniae [3]): 4.5%; Activity (Acinetobacter [17]): 1.4%; Activity (Klebsiella pneumoniae [4]): 0.2%

With `CCN1CCN(C(=O)N[C@@H](C(=O)N[C@@H]2C(=O)N3[C@@H]2SC(C)(C)[C@@H]3C(=O)O)c2ccccc2)C(=O)C1=O` [PIPERACILLIN] as the compound, how does the Activity (Serratia marcescens [18]) read?
Its Activity is 93.6%.

And the Activity (Enterobacter cloacae [19])?
Its Activity is 93.3%.

And the Activity (Enterobacteriaceae [20])?
Its Activity is 1.9%.

What about the Activity (Acinetobacter [21]) of the same compound?
The Activity was 3.9%.

What about the Activity (Enterobacteriaceae [22]) of the same compound?
Its Activity is 15.6%.

What about the Activity (Serratia marcescens [23]) of the same compound?
Its Activity is 1.9%.

And the MIC50 (Escherichia coli [24])?
The MIC50 was 16 µg/mL.

And the MIC90 (Escherichia coli [24])?
Its MIC90 is > 128 µg/mL.

What about the Activity (Enterobacteriaceae [25]) of the same compound?
Its Activity is 95.8%.

What about the MIC50 (Pseudomonas aeruginosa [26]) of the same compound?
The MIC50 was 16 µg/mL.

And the Activity (Pseudomonas aeruginosa [27])?
Its Activity is 96.3%.

And the MIC50 (Klebsiella pneumoniae [28])?
The MIC50 was > 128 µg/mL.

What about the MIC90 (Klebsiella pneumoniae [28]) of the same compound?
Its MIC90 is > 128 µg/mL.

And the Activity (Klebsiella pneumoniae [29])?
Its Activity is 2.4%.

And the MIC50 (Enterobacter cloacae [30])?
Its MIC50 is 4 µg/mL.

And the MIC90 (Enterobacter cloacae [30])?
The MIC90 was 16 µg/mL.

What about the Activity (Pseudomonas aeruginosa [31]) of the same compound?
Its Activity is 27.1%.

What about the Activity (Pseudomonas aeruginosa [32]) of the same compound?
The Activity was 3.7%.

And the Activity (Acinetobacter [33])?
The Activity was 29.8%.

What about the MIC50 (Citrobacter [34]) of the same compound?
The MIC50 was 128 µg/mL.

And the MIC90 (Citrobacter [34])?
Its MIC90 is > 128 µg/mL.

And the Activity (Citrobacter [35])?
The Activity was 93.7%.

What about the Activity (Proteus mirabilis [36]) of the same compound?
The Activity was 0.3%.

What about the Activity (Pseudomonas aeruginosa [37]) of the same compound?
The Activity was 13%.

And the Activity (Pseudomonas aeruginosa [38])?
Its Activity is 82.7%.

And the Activity (Klebsiella pneumoniae [39])?
Its Activity is 95.9%.

And the MIC50 (Acinetobacter [40])?
The MIC50 was > 128 µg/mL.

And the MIC90 (Acinetobacter [40])?
The MIC90 was > 128 µg/mL.

And the Activity (Proteus mirabilis [41])?
The Activity was 99.4%.

And the Activity (Acinetobacter [42])?
Its Activity is 0%.

And the Activity (Pseudomonas aeruginosa [43])?
The Activity was 87%.

And the MIC50 (Acinetobacter [44])?
Its MIC50 is 16 µg/mL.

What about the MIC90 (Acinetobacter [44]) of the same compound?
Its MIC90 is > 128 µg/mL.

What about the Activity (Citrobacter [45]) of the same compound?
Its Activity is 29.1%.

And the Activity (Enterobacteriaceae [46])?
Its Activity is 63.8%.

What about the MIC50 (Enterobacteriaceae [47]) of the same compound?
The MIC50 was 4 µg/mL.

What about the MIC90 (Enterobacteriaceae [47]) of the same compound?
The MIC90 was 8 µg/mL.

And the Activity (Pseudomonas aeruginosa [48])?
Its Activity is 21.6%.
